Data from ChEMBL document CHEMBL5104199, “Design, Synthesis, and Biochemical and Biological Evaluation of Novel 7-Deazapurine Cyclic Dinucleotide Analogues as STING Receptor Agonists” (J Med Chem, 2022).

What was measured:
[1] = Cytotoxicity against human PBMC cells; assay type: toxicity, cell-based
cells [2] = conditions: Homo sapiens, HEK-293T
Description: Agonist activity at human STING HAQ expressed in 293T cells by digitonin cell based assay

[3] = Induction of TNFalpha secretion in human PBMC incubated for 16 hrs
cells [4] = conditions: Homo sapiens, HEK-293T; remark: listed apart in the source
Description: Agonist activity at human STING REF expressed in 293T cells by digitonin cell based assay

[5] = biological target: T1, Stimulator of interferon genes protein (Homo sapiens, UniProt Q86WV6); assay: Agonist activity at human wild type STING expressed in 293T cells by digitonin cell based assay; set-up: species or system HEK293T
T1 sequence (Q86WV6 whole entry): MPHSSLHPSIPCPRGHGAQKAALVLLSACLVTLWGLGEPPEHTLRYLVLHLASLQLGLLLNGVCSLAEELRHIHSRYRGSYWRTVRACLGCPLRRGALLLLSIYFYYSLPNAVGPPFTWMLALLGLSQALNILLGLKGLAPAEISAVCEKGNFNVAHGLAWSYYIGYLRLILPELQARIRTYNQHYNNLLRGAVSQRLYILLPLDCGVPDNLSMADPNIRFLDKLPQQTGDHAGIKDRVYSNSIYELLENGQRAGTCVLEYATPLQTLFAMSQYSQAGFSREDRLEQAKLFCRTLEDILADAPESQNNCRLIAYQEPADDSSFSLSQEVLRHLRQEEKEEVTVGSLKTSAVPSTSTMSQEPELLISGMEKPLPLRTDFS

cells [6] = conditions: Homo sapiens, HEK-293T; remark: listed apart in the source
Description: Agonist activity at human STING Q expressed in 293T cells by digitonin cell based assay

[7] = Induction of IFNalpha secretion in human PBMC incubated for 16 hrs
[8] = biological target: T1, Stimulator of interferon genes protein; conditions: filed as agonist
Description: Binding affinity to human wild type STING assessed as change in melting temperature by differential scanning fluorimetry (DSF) method

cells [9] = conditions: Homo sapiens, HEK-293T; remark: listed apart in the source
Description: Agonist activity at human STING AQ expressed in 293T cells by digitonin cell based assay

[10] = Induction of IFNgamma secretion in human PBMC incubated for 16 hrs
[11] = biological target: T1, Stimulator of interferon genes protein; assay: Agonist activity at human wild type full length STING expressed in 293T cells incubated for 7 hrs by luciferase/cell based assay; set-up: species or system HEK-293T

SMILES | Activity [1] | EC50 (cells [2]) [µM] | EC50 [3] [µM] | EC50 (cells [4]) [µM] | EC50 [5] [µM] | EC50 (cells [6]) [µM] | EC50 [7] [µM] | ΔTm [8] [°C] | EC50 (cells [9]) [µM] | EC50 [10] [µM] | EC50 [11] [µM]
Nc1nc2c(ncn2[C@@H]2O[C@@H]3COP(=O)(O)O[C@H]4[C@@H](O)[C@H](n5cc(-c6cc7ccccc7c7ccccc67)c6c(N)ncnc65)O[C@@H]4COP(=O)(O)O[C@@H]2[C@@H]3O)c(=O)[nH]1 | Non-Toxic | 0.9 | > 200 | > 45 | 0.061 | > 45 | > 200 | 4.4 | 1.4 | – | –
Nc1nc2c(ncn2[C@@H]2O[C@@H]3COP(=O)(O)O[C@H]4[C@@H](O)[C@H](n5cc(-c6cc7ccccc7s6)c6c(N)ncnc65)O[C@@H]4COP(=O)(O)O[C@@H]2[C@@H]3O)c(=O)[nH]1 | Non-Toxic | 0.195 | 1.43 | 0.35 | 0.035 | 0.25 | 4.04 | 13.5 | 0.33 | 0.87 | –
Nc1nc2c(ncn2[C@@H]2O[C@@H]3COP(=O)(O)O[C@H]4[C@@H](O)[C@H](n5cc(-c6ccco6)c6c(N)ncnc65)O[C@@H]4COP(=O)(O)O[C@@H]2[C@@H]3O)c(=O)[nH]1 | Non-Toxic | – | – | – | – | – | – | – | – | – | –
Nc1nc2c(ncn2[C@@H]2O[C@@H]3COP(=O)(O)O[C@H]4[C@@H](O)[C@H](n5cc(C6CC6)c6c(N)ncnc65)O[C@@H]4COP(=O)(O)O[C@@H]2[C@@H]3O)c(=O)[nH]1 | Non-Toxic | – | – | – | – | – | – | – | – | – | –
Cc1cn([C@@H]2O[C@@H]3COP(=O)(O)O[C@@H]4[C@H](O)[C@@H](COP(=O)(O)O[C@H]3[C@H]2O)O[C@H]4n2cnc3c(=O)[nH]c(N)nc32)c2ncnc(N)c12 | Non-Toxic | – | – | – | – | – | – | – | – | – | –
Nc1nc2c(c(-c3ccccc3)cn2[C@@H]2O[C@@H]3COP(=O)(O)O[C@H]4[C@@H](O)[C@H](n5cc(-c6ccccc6)c6c(N)ncnc65)O[C@@H]4COP(=O)(O)O[C@@H]2[C@@H]3O)c(=O)[nH]1 | – | 9.42 | – | 19.5 | 6.41 | 0.271 | – | 1 | 10.3 | – | > 150
Nc1nc2c(ncn2[C@@H]2O[C@@H]3COP(=O)(O)O[C@H]4[C@@H](O)[C@H](n5cc(-c6ccc(-c7ccccc7)cc6)c6c(N)ncnc65)O[C@@H]4COP(=O)(O)O[C@@H]2[C@@H]3O)c(=O)[nH]1 | Non-Toxic | 0.173 | 13.6 | 0.346 | 0.013 | 0.235 | 7.43 | 12.3 | 0.092 | 2.05 | –
Nc1nc2c(ncn2[C@@H]2O[C@@H]3COP(=O)(O)O[C@H]4[C@@H](O)[C@H](n5cnc6c(N)ncnc65)O[C@@H]4COP(=O)(O)O[C@H]3[C@H]2O)c(=O)[nH]1 | Non-Toxic | – | 18.7 | – | – | – | 7.65 | – | – | 17.2 | –
Nc1nc2c(ncn2[C@@H]2O[C@@H]3COP(=O)(O)O[C@H]4[C@@H](O)[C@H](n5cc(-c6cccc7ccccc67)c6c(N)ncnc65)O[C@@H]4COP(=O)(O)O[C@@H]2[C@@H]3O)c(=O)[nH]1 | Non-Toxic | 0.497 | > 200 | 18.9 | 1.1 | 7.23 | – | 4.4 | 0.47 | – | –
Nc1nc2c(ncn2[C@@H]2O[C@@H]3COP(=O)(O)O[C@H]4[C@@H](O)[C@H](n5cc(-c6ccc(-c7ccc8ccccc8c7)cc6)c6c(N)ncnc65)O[C@@H]4COP(=O)(O)O[C@@H]2[C@@H]3O)c(=O)[nH]1 | Non-Toxic | 0.132 | 53.9 | 1 | 0.032 | 0.95 | 5.09 | 13 | 0.16 | 1.77 | –
Nc1nc2c(ncn2[C@@H]2O[C@@H]3COP(=O)(O)O[C@H]4[C@@H](O)[C@H](n5cc(-c6cccs6)c6c(N)ncnc65)O[C@@H]4COP(=O)(O)O[C@@H]2[C@@H]3O)c(=O)[nH]1 | Non-Toxic | – | – | – | – | – | – | – | – | – | –
Nc1ncnc2c1c(-c1ccccc1)cn2[C@@H]1O[C@@H]2COP(=O)(O)O[C@@H]3[C@H](O)[C@@H](COP(=O)(O)O[C@H]2[C@H]1O)O[C@H]3n1cc(-c2ccccc2)c2c(N)ncnc21 | – | > 45 | – | > 45 | > 45 | > 45 | – | -0.6 | > 45 | – | > 150
Nc1nc2c(ncn2[C@@H]2O[C@@H]3COP(=O)(O)O[C@H]4[C@@H](O)[C@H](n5cc(-c6cccc7c6oc6ccccc67)c6c(N)ncnc65)O[C@@H]4COP(=O)(O)O[C@@H]2[C@@H]3O)c(=O)[nH]1 | Non-Toxic | 0.503 | 99.7 | 8.97 | 0.367 | 7.07 | – | 7.1 | 0.869 | – | –
Nc1nc2c(ncn2[C@@H]2O[C@@H]3COP(=O)(O)O[C@H]4[C@@H](O)[C@H](n5cc(-c6ccccc6)c6c(N)ncnc65)O[C@@H]4COP(=O)(O)O[C@@H]2[C@@H]3O)c(=O)[nH]1 | Non-Toxic | 0.385 | 52.5 | 5.9 | 0.063 | 1.7 | – | 8.1 | 0.307 | – | –
Nc1nc2c(ncn2[C@@H]2O[C@@H]3COP(=O)(O)O[C@H]4[C@@H](O)[C@H](n5cc(-c6cc7ccccc7o6)c6c(N)ncnc65)O[C@@H]4COP(=O)(O)O[C@@H]2[C@@H]3O)c(=O)[nH]1 | Non-Toxic | 0.06 | 24.6 | 0.334 | 0.076 | 0.176 | 12.8 | 12.1 | 0.085 | 8.33 | –
Nc1nc2c(ncn2[C@@H]2O[C@@H]3COP(=O)(O)O[C@H]4[C@@H](O)[C@H](n5cc(-c6ccc7c8c(cccc68)CC7)c6c(N)ncnc65)O[C@@H]4COP(=O)(O)O[C@@H]2[C@@H]3O)c(=O)[nH]1 | Non-Toxic | 1.63 | > 200 | > 45 | 1.16 | 35.9 | 74.7 | 2.5 | 1.53 | 85.2 | > 150
Nc1nc2c(ncn2[C@@H]2O[C@@H]3COP(=O)(O)O[C@H]4[C@@H](O)[C@H](n5cc(-c6ccc7ccccc7c6)c6c(N)ncnc65)O[C@@H]4COP(=O)(O)O[C@@H]2[C@@H]3O)c(=O)[nH]1 | Non-Toxic | 0.695 | 98.8 | 1.4 | 0.048 | 0.7 | – | 14.4 | 0.55 | – | –
Nc1nc2c(ncn2[C@@H]2O[C@@H]3COP(=O)(O)O[C@H]4[C@@H](O)[C@H](n5cnc6c(N)ncnc65)O[C@@H]4COP(=O)(O)O[C@@H]2[C@@H]3O)c(=O)[nH]1 | Non-Toxic | – | – | – | – | – | – | – | – | – | –
Nc1nc2c(ncn2[C@@H]2O[C@@H]3COP(=O)(O)O[C@H]4[C@@H](O)[C@H](n5cc(-c6ccccc6)c6c(N)ncnc65)O[C@@H]4COP(=O)(O)O[C@H]3[C@H]2O)c(=O)[nH]1 | Non-Toxic | 0.367 | 65.8 | 10.4 | 0.11 | 4.48 | 6.92 | 5.1 | 0.28 | 12.6 | > 150
Nc1nc2c(ncn2[C@@H]2O[C@@H]3COP(=O)(O)O[C@@H]4[C@H](O)[C@@H](COP(=O)(O)O[C@@H]2[C@@H]3O)O[C@H]4n2cnc3c(N)ncnc32)c(=O)[nH]1 | Non-Toxic | 0.189 | 44.5 | 59.5 | 0.26 | 7.09 | 7.21 | 2.5 | 0.173 | 11.8 | > 150
